Measurements: US20240360157A1, “TYK2 INHIBITORS” (BIOGEN MA INC., priority 2021, published 2024)

Experiments:
Type in all cases: biochemical
[1] = target: human JAK1 catalytic kinase (JH1) domain (Homo sapiens (Human), UniProt P23458); experiment: ADP-Glo Kinase Assay, recombinant JAK1 catalytic kinase (JH1) domain; conditions: recombinant JH1 domain 4 nM, 35 μM ATP, JAK3-342 peptide, mean, read-out: JAK1 biochem IC50 (nM) Mean
How it was run: (§1)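 Compounds were titrated in 11 points of 3-fold dilution starting at 10 μM or 1 μM. Enzyme (JAK1 4 nM, JAK2 0.2 nM, JAK3 0.3 nM, TYK2 2 nM) and 50 μM peptide reacted for 100 minutes, followed by ADP-to-luminescence detection; IC50 by 4-parameter fit.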

[2] = target: human JAK2 catalytic kinase (JH1) domain (Homo sapiens (Human), UniProt O60674); experiment: ADP-Glo Kinase Assay, recombinant JAK2 catalytic kinase (JH1) domain; conditions: recombinant JH1 domain 0.2 nM, 15 μM ATP, JAK3-974 peptide, mean, read-out: JAK2 biochem IC50 (nM) Mean
How it was run: as §1

[3] = target: human TYK2 catalytic kinase (JH1) domain (Homo sapiens (Human), UniProt P29597); experiment: ADP-Glo Kinase Assay, recombinant TYK2 catalytic kinase (JH1) domain; conditions: recombinant JH1 domain 2 nM, 10 μM ATP, JAK3-974 peptide, mean, read-out: TYK2 biochem IC50 (nM) Mean
How it was run: as §1

[4] = target: human JAK3 catalytic kinase (JH1) domain (Homo sapiens (Human), UniProt P52333); experiment: ADP-Glo Kinase Assay, recombinant JAK3 catalytic kinase (JH1) domain; conditions: recombinant JH1 domain 0.3 nM, 4 μM ATP, JAK3-974 peptide, mean, read-out: JAK3 biochem IC50 (nM) Mean
How it was run: as §1

human JAK2 catalytic kinase (JH1) domain, sequence (O60674 849-1124): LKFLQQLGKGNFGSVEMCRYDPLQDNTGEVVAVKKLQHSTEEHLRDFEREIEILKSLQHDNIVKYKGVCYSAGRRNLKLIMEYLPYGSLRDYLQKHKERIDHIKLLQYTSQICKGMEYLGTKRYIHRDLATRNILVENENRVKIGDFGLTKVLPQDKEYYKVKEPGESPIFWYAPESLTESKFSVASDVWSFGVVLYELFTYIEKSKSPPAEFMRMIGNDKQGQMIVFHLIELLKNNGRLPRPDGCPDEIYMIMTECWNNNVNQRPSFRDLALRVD
human TYK2 catalytic kinase (JH1) domain, sequence (P29597 897-1176): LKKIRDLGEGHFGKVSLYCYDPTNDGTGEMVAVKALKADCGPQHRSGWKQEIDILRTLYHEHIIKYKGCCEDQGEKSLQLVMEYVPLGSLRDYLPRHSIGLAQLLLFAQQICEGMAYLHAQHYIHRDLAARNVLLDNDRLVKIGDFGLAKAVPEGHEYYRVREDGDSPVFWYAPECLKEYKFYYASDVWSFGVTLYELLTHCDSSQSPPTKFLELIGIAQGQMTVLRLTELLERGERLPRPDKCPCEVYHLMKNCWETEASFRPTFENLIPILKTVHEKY
human JAK3 catalytic kinase (JH1) domain, sequence (P52333 822-1111): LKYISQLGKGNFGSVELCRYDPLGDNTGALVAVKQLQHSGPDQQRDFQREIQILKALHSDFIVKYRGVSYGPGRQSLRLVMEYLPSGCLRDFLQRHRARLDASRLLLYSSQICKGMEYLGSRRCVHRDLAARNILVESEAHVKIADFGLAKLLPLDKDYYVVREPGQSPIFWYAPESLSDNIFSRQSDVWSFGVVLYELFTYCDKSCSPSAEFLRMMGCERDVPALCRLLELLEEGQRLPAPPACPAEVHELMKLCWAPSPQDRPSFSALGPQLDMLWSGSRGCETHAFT
human JAK1 catalytic kinase (JH1) domain, sequence (P23458 875-1153): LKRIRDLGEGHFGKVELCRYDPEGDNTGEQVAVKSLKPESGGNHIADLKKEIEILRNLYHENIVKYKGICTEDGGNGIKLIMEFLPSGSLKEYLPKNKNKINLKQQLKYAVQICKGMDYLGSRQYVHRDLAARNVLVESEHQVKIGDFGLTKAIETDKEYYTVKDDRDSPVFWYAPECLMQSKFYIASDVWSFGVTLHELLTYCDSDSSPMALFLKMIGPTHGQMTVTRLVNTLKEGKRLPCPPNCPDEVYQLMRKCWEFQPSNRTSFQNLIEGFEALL

In the case of `O=C([C@@H]1C[C@H]1F)N1C2CCC1CN(c1ccnn3cc(C4CCOC4)cc13)C2` (stereo partly drawn) [Example 175, ((1S,2R)-2-fluorocyclopropyl)(3-(6-(tetrahydrofuran-3-yl)pyrrolo[1,2-b]pyridazin-4-yl)-3,8-diazabicyclo[3.2.1]octan-8-yl)methanone], the IC50 [1] is reported as no less than 10000 nM, the IC50 [2] is reported as no less than 10000 nM and the IC50 [3] is reported as 847 nM. It also gave an IC50 [4] of no less than 10000 nM.

With `N#Cc1cccc(-c2cc3c(N4CC5CCC(C4)N5C(=O)C4CC4)ncnn3c2)c1` [Example 176] the IC50 [1] was 3560 nM, the IC50 [2] was 10000 nM and the IC50 [3] was 830 nM. For the same molecule, the IC50 [4] was 9890 nM.

`O=C(C1CC1)N1C2CCC1CN(c1ncnn3cc(-c4ccccc4)cc13)C2` [Example 177] gave an IC50 [1] of 1230 nM, an IC50 [2] of 10000 nM and an IC50 [3] of 300 nM. The IC50 [4] was 4670 nM.

`COc1ccc(-c2cc3c(N4CC5CCC(C4)N5C(=O)C4CC4)ncnn3c2)cn1` [Example 178] was tested, and the IC50 [1] was 2020 nM, the IC50 [2] was 10000 nM and the IC50 [3] was 719 nM. The IC50 [4] was 6270 nM.

With `O=C(C1CC1)N1C2CCC1CN(c1ncnn3cc(-c4ccc(Cl)nc4)cc13)C2` [Example 179] the IC50 [1] was 5400 nM, the IC50 [2] was 10000 nM and the IC50 [3] was 684 nM. The IC50 [4] was 9270 nM.

For `O=C(C1CC1)N1C2CCC1CN(c1ncnn3cc(-c4ccnc(Cl)c4)cc13)C2` [Example 180], the IC50 [1] was 4750 nM, the IC50 [2] was 10000 nM and the IC50 [3] was 547 nM. For the same molecule, the IC50 [4] was 10000 nM.

With `O=C(C1CC1)N1C2CCC1CN(c1ncnn3cc(-c4ccncc4)cc13)C2` [Example 181] the IC50 [1] was 1040 nM, the IC50 [2] was 7860 nM and the IC50 [3] was 229 nM. The IC50 [4] was 5520 nM.

With `O=C(C1CC1)N1C2CCC1CN(c1ncnn3cc(-c4ccccc4F)cc13)C2` [Example 182] the IC50 [1] was 3660 nM, the IC50 [2] was 10000 nM and the IC50 [3] was 704 nM. The IC50 [4] was 8600 nM.

`O=C(C1CC1)N1C2CCC1CN(c1ncnn3cc(-c4cccnc4)cc13)C2` [Example 183] showed an IC50 [1] of 3290 nM, an IC50 [2] of 10000 nM and an IC50 [3] of 557 nM. The IC50 [4] was 8640 nM.

`O=C(C1CC1)N1C2CCC1CN(c1ncnn3cc(-c4ccc5nncn5c4)cc13)C2` [Example 184] gave an IC50 [1] of 2340 nM, an IC50 [2] of 7480 nM and an IC50 [3] of 230 nM. The IC50 [4] was 6270 nM.

`COc1ccc(-c2cc3c(N4CC5CCC(C4)N5C(=O)C4CC4)ncnn3c2)cc1C#N` [Example 185] showed an IC50 [1] of 2540 nM, an IC50 [2] of 10000 nM and an IC50 [3] of 398 nM. It also gave an IC50 [4] of 10000 nM.

For `Cn1cc(-c2cc3c(N4CC5CCC(C4)N5C(=O)C4CC4)ncnn3c2)nn1` [Example 186, cyclopropyl(3-(6-(1-methyl-1H-1,2,3-triazol-4-yl)pyrrolo[2,1-f][1,2,4]triazin-4-yl)-3,8-diazabicyclo[3.2.1]octan-8-yl)methanone], the IC50 [1] was no less than 10000 nM, the IC50 [2] was 9850 nM and the IC50 [3] was 845 nM. It also gave an IC50 [4] of no less than 10000 nM.

`Cn1cc(-c2cc3c(N4CC5CCC(C4)N5S(=O)(=O)C4CC4)ncnn3c2)cn1` [Example 187, 4-(8-(cyclopropylsulfonyl)-3,8-diazabicyclo[3.2.1]octan-3-yl)-6-(1-methyl-1H-pyrazol-4-yl)pyrrolo[2,1-f][1,2,4]triazine] gave an IC50 [1] of 9660 nM, an IC50 [2] of 5410 nM and an IC50 [3] of 643 nM. For the same molecule, the IC50 [4] was 9430 nM.

With `O=S(=O)(C1CC1)N1C2CCC1CN(c1ncnn3cc(-c4cnn(C(F)F)c4)cc13)C2` [Example 188, 4-(8-(cyclopropylsulfonyl)-3,8-diazabicyclo[3.2.1]octan-3-yl)-6-(1-(difluoromethyl)-1H-pyrazol-4-yl)pyrrolo[2,1-f][1,2,4]triazine] the IC50 [1] was 9740 nM, the IC50 [2] was 5890 nM and the IC50 [3] was 615 nM. For the same molecule, the IC50 [4] was 9390 nM.

`Cn1cc(-c2cc3c(N4CC5CCC(C4)N5S(=O)(=O)C4CC4)ccnn3c2)cn1` [Example 189, 4-(8-(cyclopropylsulfonyl)-3,8-diazabicyclo[3.2.1]octan-3-yl)-6-(1-methyl-1H-pyrazol-4-yl)pyrrolo[1,2-b]pyridazine] showed an IC50 [1] of 1210 nM, an IC50 [2] of 208 nM and an IC50 [3] of 46.5 nM. For the same molecule, the IC50 [4] was 1020 nM.

`COc1cc(-c2cc3c(N4CC5CCC(C4)N5S(=O)(=O)C4CC4)ccnn3c2)ccn1` [Example 190] gave an IC50 [1] of 324 nM, an IC50 [2] of 280 nM and an IC50 [3] of 64.4 nM. The IC50 [4] was 2750 nM.

With `Cn1cc(-c2cc3c(N4CC5CCC(C4)N5S(=O)(=O)C4CC4)ncnc3[nH]2)cn1` [Example 191] the IC50 [1] was 1780 nM, the IC50 [2] was 601 nM and the IC50 [3] was 102 nM. For the same molecule, the IC50 [4] was 650 nM.

`COc1cc(-c2cc3c(N4CC5CCC(C4)N5S(=O)(=O)C4CC4)ncnc3[nH]2)ccn1` [Example 192] showed an IC50 [1] of 1860 nM, an IC50 [2] of 3060 nM and an IC50 [3] of 298 nM. For the same molecule, the IC50 [4] was 10000 nM.

For `Cn1cc(-c2cc3c(N4CC5CCC(C4)N5S(=O)(=O)C4CC4)ccnc3[nH]2)cn1` [Example 193], the IC50 [1] was 200 nM, the IC50 [2] was 36 nM and the IC50 [3] was 10.1 nM. It also gave an IC50 [4] of 199 nM.

Work on `COc1cc(-c2cc3c(N4CC5CCC(C4)N5S(=O)(=O)C4CC4)ccnc3[nH]2)ccn1` [Example 194] yielded an IC50 [1] of 116 nM, an IC50 [2] of 80 nM and an IC50 [3] of 21 nM. It also gave an IC50 [4] of 612 nM.

For `Cn1cc(-c2nc3c(N4CC5CCC(C4)N5S(=O)(=O)C4CC4)ccnc3[nH]2)cn1` [Example 195], the IC50 [1] was 194 nM, the IC50 [2] was 38 nM and the IC50 [3] was 20.6 nM. The IC50 [4] was 306 nM.

`COc1cc(-c2nc3c(N4CC5CCC(C4)N5S(=O)(=O)C4CC4)ccnc3[nH]2)ccn1` [Example 196] gave an IC50 [1] of 216 nM, an IC50 [2] of 168 nM and an IC50 [3] of 66.3 nM. The IC50 [4] was 1000 nM.

With `Cn1cc(-c2cc3c(N4CC5CCC(C4)N5S(=O)(=O)[C@H]4CC4(F)F)ccnn3c2)cn1` [Example 197, 4-(8-(((S)-2,2-difluorocyclopropyl)sulfonyl)-3,8-diazabicyclo[3.2.1]octan-3-yl)-6-(1-methyl-1H-pyrazol-4-yl)pyrrolo[1,2-b]pyridazine] the IC50 [1] was 322 nM, the IC50 [2] was 99 nM and the IC50 [3] was 16.7 nM. For the same molecule, the IC50 [4] was 701 nM.

In the case of `Cn1cc(-c2cc3c(N4CC5CCC(C4)N5S(=O)(=O)[C@@H]4CC4(F)F)ccnn3c2)cn1` [Example 198, 4-(8-(((R)-2,2-difluorocyclopropyl)sulfonyl)-3,8-diazabicyclo[3.2.1]octan-3-yl)-6-(1-methyl-1H-pyrazol-4-yl)pyrrolo[1,2-b]pyridazine], the IC50 [1] is reported as 266 nM, the IC50 [2] is reported as 95 nM and the IC50 [3] is reported as 15.1 nM. The IC50 [4] was 652 nM.

For `Cn1cc(-c2nc3c(N4CC5CCC(C4)N5C(=O)C4CC4)ccnc3[nH]2)cn1` [Example 199, cyclopropyl(3-(2-(1-methyl-1H-pyrazol-4-yl)-3H-imidazo[4,5-b]pyridin-7-yl)-3,8-diazabicyclo[3.2.1]octan-8-yl)methanone], the IC50 [1] was 92 nM, the IC50 [2] was 56 nM and the IC50 [3] was 6.2 nM. The IC50 [4] was 219 nM.

For `Cn1cc(-c2nc3c(N4CC5CCC(C4)N5C(=O)[C@@H]4C[C@H]4F)ccnc3[nH]2)cn1` [Example 200, ((1S,2R)-2-fluorocyclopropyl)(3-(2-(1-methyl-1H-pyrazol-4-yl)-3H-imidazo[4,5-b]pyridin-7-yl)-3,8-diazabicyclo[3.2.1]octan-8-yl)methanone], the IC50 [1] was 9 nM, the IC50 [2] was 6 nM and the IC50 [3] was 0.4 nM. It also gave an IC50 [4] of 78 nM.

`Cn1cc(-c2nc3c(N4CC5CCC(C4)N5C(=O)[C@@H]4CC4(F)F)ccnc3[nH]2)cn1` [Example 201, ((S)-2,2-difluorocyclopropyl)(3-(2-(1-methyl-1H-pyrazol-4-yl)-3H-imidazo[4,5-b]pyridin-7-yl)-3,8-diazabicyclo[3.2.1]octan-8-yl)methanone] was tested, and the IC50 [1] was 14 nM, the IC50 [2] was 9 nM and the IC50 [3] was 1.5 nM. The IC50 [4] was 164 nM.

`Cc1cc(-c2nc3c(N4CC5CCC(C4)N5C(=O)[C@@H]4C[C@H]4F)ccnc3[nH]2)ccn1` [Example 202, ((1S,2R)-2-fluorocyclopropyl)(3-(2-(2-methylpyridin-4-yl)-3H-imidazo[4,5-b]pyridin-7-yl)-3,8-diazabicyclo[3.2.1]octan-8-yl)methanone] gave an IC50 [1] of 5 nM, an IC50 [2] of 14 nM and an IC50 [3] of 2.5 nM. For the same molecule, the IC50 [4] was 199 nM.

`COc1cc(-c2nc3c(N4CC5CCC(C4)N5C(=O)[C@@H]4C[C@H]4F)ccnc3[nH]2)ccn1` [Example 203, ((1S,2R)-2-fluorocyclopropyl)(3-(2-(2-methoxypyridin-4-yl)-3H-imidazo[4,5-b]pyridin-7-yl)-3,8-diazabicyclo[3.2.1]octan-8-yl)methanone] showed an IC50 [1] of 19 nM, an IC50 [2] of 42 nM and an IC50 [3] of 7 nM. For the same molecule, the IC50 [4] was 578 nM.

`N#Cc1cc(-c2nc3c(N4CC5CCC(C4)N5C(=O)[C@@H]4C[C@H]4F)ccnc3[nH]2)ccn1` [Example 204, 4-(7-(8-((1S,2R)-2-fluorocyclopropane-1-carbonyl)-3,8-diazabicyclo[3.2.1]octan-3-yl)-3H-imidazo[4,5-b]pyridin-2-yl)picolinonitrile] was tested, and the IC50 [1] was 36 nM, the IC50 [2] was 49 nM and the IC50 [3] was 12 nM. For the same molecule, the IC50 [4] was 716 nM.

`Cc1ccc(-c2nc3c(N4CC5CCC(C4)N5C(=O)[C@@H]4C[C@H]4F)ccnc3[nH]2)cn1` [Example 205, ((1S,2R)-2-fluorocyclopropyl)(3-(2-(6-methylpyridin-3-yl)-3H-imidazo[4,5-b]pyridin-7-yl)-3,8-diazabicyclo[3.2.1]octan-8-yl)methanone] was tested, and the IC50 [1] was 25 nM, the IC50 [2] was 22 nM and the IC50 [3] was 4.6 nM. The IC50 [4] was 246 nM.

In the case of `O=C([C@@H]1C[C@H]1F)N1C2CCC1CN(c1ccnc3[nH]c(-c4ccc(C(F)F)nc4)nc13)C2` [Example 206], the IC50 [1] is reported as 24 nM, the IC50 [2] is reported as 35 nM and the IC50 [3] is reported as 6.8 nM. It also gave an IC50 [4] of 744 nM.
